In PubChem BioAssay AID330 (DTP/NCI, 2004):
Several values for one entry are separate records, joined by “and”; a condition that tells them apart may be missing. Equal entries are not always repeated. Toxic doses and inconclusive results are not listed.

Test system: P388 leukemia ip, CD2F1 mice, survival T/C
Assay: NCI In Vivo Anticancer Drug Screen. Data for tumor model P388 Leukemia (intraperitoneal) in CD2F1 (CDF1) mice
Conditions: endpoint: median survival time, higher = longer survival
Summary of the method: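 Mice carrying the transplanted tumor received test compound or vehicle. Survival was recorded in each group, and the value is the treated-group measurement divided by that of the vehicle-treated control group.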

[1] = dose: 15.0 mg/kg/injection, schedule: Q01DX005 (ip), vehicle: saline with Tween-80
[2] = dose: 30.0 mg/kg/injection, schedule: Q01DX005 (ip), vehicle: saline with Tween-80
[3] = dose: 60.0 mg/kg/injection, schedule: Q01DX005 (ip), vehicle: saline with Tween-80
[4] = dose: 60.0 mg/kg/injection, schedule: Q01DX005 (ip), vehicle: Klucel (hydroxypropylcellulose) (HPC)
[5] = dose: 120.0 mg/kg/injection, schedule: Q01DX005 (ip), vehicle: Klucel (hydroxypropylcellulose) (HPC)
[6] = dose: 240.0 mg/kg/injection, schedule: Q01DX005 (ip), vehicle: Klucel (hydroxypropylcellulose) (HPC)
[7] = dose: 100.0 mg/kg/injection, schedule: Q04DX002 (ip), vehicle: saline with Tween-80
[8] = dose: 200.0 mg/kg/injection, schedule: Q04DX002 (ip), vehicle: saline with Tween-80
[9] = dose: 12.5 mg/kg/injection, schedule: Q01DX009 (ip), vehicle: saline with Tween-80
[10] = dose: 25.0 mg/kg/injection, schedule: Q01DX009 (ip), vehicle: saline with Tween-80
[11] = dose: 50.0 mg/kg/injection, schedule: Q01DX005 (ip), vehicle: saline with Tween-80
[12] = dose: 50.0 mg/kg/injection, schedule: Q01DX009 (ip), vehicle: saline with Tween-80
[13] = dose: 100.0 mg/kg/injection, schedule: Q01DX005 (ip), vehicle: saline with Tween-80
[14] = dose: 100.0 mg/kg/injection, schedule: Q01DX009 (ip), vehicle: saline with Tween-80
[15] = dose: 200.0 mg/kg/injection, schedule: Q01DX005 (ip), vehicle: saline with Tween-80
[16] = dose: 50.0 mg/kg/injection, schedule: Q01DX009 (ip), vehicle: Klucel (hydroxypropylcellulose) (HPC)
[17] = dose: 50.0 mg/kg/injection, schedule: Q01DX005 (ip), vehicle: Klucel (hydroxypropylcellulose) (HPC)
[18] = dose: 100.0 mg/kg/injection, schedule: Q01DX005 (ip), vehicle: Klucel (hydroxypropylcellulose) (HPC)
[19] = dose: 200.0 mg/kg/injection, schedule: Q01DX005 (ip), vehicle: Klucel (hydroxypropylcellulose) (HPC)
[20] = dose: 200.0 mg/kg/injection, schedule: Q01DX009 (ip), vehicle: saline with Tween-80
[21] = dose: 100.0 mg/kg/injection, schedule: Q01DX009 (ip), vehicle: Klucel (hydroxypropylcellulose) (HPC)
[22] = dose: 200.0 mg/kg/injection, schedule: Q01DX009 (ip), vehicle: Klucel (hydroxypropylcellulose) (HPC)

C[Si](CCCNCCN)(O[Si](C)(CCCNCCN)c1ccccc1)c1ccccc1 (stereo not given)
T/C [1]: 109 % of control | T/C [2]: 105 % of control | T/C [3]: 100 % of control

CC(C)(C)OC(=O)CS(=O)(=O)Nc1ccccc1O
T/C [4]: 106 % of control | T/C [5]: 86 % of control | T/C [6]: 97 % of control

COc1ccc2ncc(C)c(COC(C)=O)c2c1
T/C [7]: 102 % of control | T/C [8]: 93 % of control | T/C (dose: 400.0 mg/kg/injection, schedule: Q04DX002 (ip), vehicle: saline with Tween-80): 97 % of control

CSc1nc2ncnn2c(=O)[nH]1
T/C [9]: 100 % of control | T/C [10]: 99 % of control | T/C [11]: 98 % of control | T/C [12]: 100 % of control | T/C [13]: 105 % of control | T/C [14]: 100 % of control | T/C [15]: 103 % of control

CCCCCCCCCCCCN1C(C)=CS/C1=C\C=C\c1scc(C)[n+]1CCCCCCCCCCCC
T/C (dose: 0.75 mg/kg/injection, schedule: Q01DX005 (ip), vehicle: saline with Tween-80): 110 % of control | T/C (dose: 3.0 mg/kg/injection, schedule: Q01DX005 (ip), vehicle: saline with Tween-80): 119 % of control | T/C (dose: 3.12 mg/kg/injection, schedule: Q04DX002 (ip), vehicle: saline with Tween-80): 150 % of control | T/C (dose: 6.25 mg/kg/injection, schedule: Q04DX002 (ip), vehicle: saline with Tween-80): 150 % of control and 157 % of control | T/C (dose: 12.5 mg/kg/injection, schedule: Q04DX002 (ip), vehicle: saline with Tween-80): 160 % of control and 163 % of control

CCNc1nc(NC(C)C)nc(N2CCc3ccccc3C2)n1
T/C [11]: 106 % of control | T/C [13]: 117 % of control | T/C [15]: 110 % of control

COc1cncn2nc(C)nc12
T/C (dose: 60.0 mg/kg/injection, schedule: Q01DX005 (ip), vehicle: saline): 100 % of control | T/C (dose: 120.0 mg/kg/injection, schedule: Q01DX005 (ip), vehicle: saline): 99 % of control | T/C (dose: 240.0 mg/kg/injection, schedule: Q01DX005 (ip), vehicle: saline): 93 % of control

CCCCCCCCCCCC[N+](C)([O-])CCCCCC[N+](C)([O-])CCCCCCCCCCCC (stereo not given)
T/C (dose: 12.5 mg/kg/injection, schedule: Q01DX009 (ip), vehicle: Klucel (hydroxypropylcellulose) (HPC)): 96 % of control | T/C (dose: 25.0 mg/kg/injection, schedule: Q01DX009 (ip), vehicle: Klucel (hydroxypropylcellulose) (HPC)): 95 % of control | T/C [16]: 100 % of control and 95 % of control

COC(=O)CCSC(=O)Nc1ccc(Cl)cc1
T/C [17]: 105 % of control | T/C [18]: 101 % of control | T/C [19]: 113 % of control

N#CC1CCCC2OCC(c3ccccc3)N12 (stereo not given)
T/C [4]: 119 % of control | T/C [5]: 119 % of control | T/C [6]: 117 % of control

CCOC(=O)CCN(CCC(=O)OCC)c1ccccn1
T/C [17]: 105 % of control | T/C [18]: 99 % of control | T/C [19]: 101 % of control

N#CCSCC(=O)c1ccccc1
T/C [11]: 105 % of control | T/C [13]: 105 % of control | T/C [15]: 112 % of control

Nc1cccc2c1C(=O)c1nccnc1C2=O
T/C (dose: 100.0 mg/kg/injection, schedule: Q01DX001 (ip), vehicle: Klucel + Tween-80): 98 % of control | T/C (dose: 200.0 mg/kg/injection, schedule: Q01DX001 (ip), vehicle: Klucel + Tween-80): 98 % of control | T/C (dose: 400.0 mg/kg/injection, schedule: Q01DX001 (ip), vehicle: Klucel + Tween-80): 97 % of control

CC(C)=CC[P+](CP(c1ccccc1)c1ccccc1)(c1ccccc1)c1ccccc1
T/C (dose: 3.12 mg/kg/injection, schedule: Q01DX005 (ip), vehicle: saline with Tween-80): 107 % of control | T/C (dose: 6.25 mg/kg/injection, schedule: Q01DX005 (ip), vehicle: saline with Tween-80): 105 % of control | T/C (dose: 12.5 mg/kg/injection, schedule: Q01DX005 (ip), vehicle: saline with Tween-80): 89 % of control

COc1cc(C(=O)CC(=O)CCC(=O)Nc2ccc(C)c(C)c2)ccc1O
T/C [3]: 102 % of control | T/C (dose: 120.0 mg/kg/injection, schedule: Q01DX005 (ip), vehicle: saline with Tween-80): 104 % of control | T/C (dose: 240.0 mg/kg/injection, schedule: Q01DX005 (ip), vehicle: saline with Tween-80): 102 % of control

O=C(c1ccc(Cl)cc1)c1no[n+]([O-])c1C(=O)c1ccc(Cl)cc1
T/C [10]: 115 % of control | T/C [12]: 111 % of control | T/C [20]: 118 % of control

CC(=O)N=c1sccn1CC(=O)c1ccccc1
T/C (dose: 25.0 mg/kg/injection, schedule: Q04DX003 (ip), vehicle: Klucel (hydroxypropylcellulose) (HPC)): 119 % of control | T/C (dose: 50.0 mg/kg/injection, schedule: Q04DX003 (ip), vehicle: Klucel (hydroxypropylcellulose) (HPC)): 96 % of control | T/C (dose: 100.0 mg/kg/injection, schedule: Q01DX001 (ip), vehicle: Klucel (hydroxypropylcellulose) (HPC)): 100 % of control | T/C (dose: 200.0 mg/kg/injection, schedule: Q01DX001 (ip), vehicle: Klucel (hydroxypropylcellulose) (HPC)): 100 % of control | T/C (dose: 400.0 mg/kg/injection, schedule: Q01DX001 (ip), vehicle: Klucel (hydroxypropylcellulose) (HPC)): 101 % of control

Cc1ccc(N=Cc2cccs2)cc1Cl
T/C [16]: 94 % of control | T/C [21]: 113 % of control | T/C [22]: 106 % of control

C=CC(=O)NCNC(=O)C=C
T/C [14]: 172 % of control | T/C (dose: 132.0 mg/kg/injection, schedule: Q04DX003 (ip), vehicle: saline with Tween-80): 118 % of control | T/C (dose: 200.0 mg/kg/injection, schedule: Q04DX003 (ip), vehicle: saline sonified): 159 % of control | T/C (dose: 300.0 mg/kg/injection, schedule: Q04DX003 (ip), vehicle: saline with Tween-80): 181 % of control

CC1CC[N-]C(N)N1.CC1CC[N-]C(N)N1.[Cl][Pd][Cl] (stereo not given)
T/C [4]: 97 % of control | T/C [5]: 97 % of control | T/C [6]: 90 % of control

CCCCN1COC2CCCCC21 (stereo not given)
T/C (dose: 25.0 mg/kg/injection, schedule: Q01DX005 (ip), vehicle: saline): 113 % of control | T/C (dose: 100.0 mg/kg/injection, schedule: Q01DX005 (ip), vehicle: saline): 121 % of control

O=C(O)c1cc2ccc(Br)cc2[se]1
T/C (dose: 50.0 mg/kg/injection, schedule: Q01DX009 (ip), vehicle: saline): 110 % of control | T/C (dose: 100.0 mg/kg/injection, schedule: Q01DX009 (ip), vehicle: saline): 99 % of control | T/C (dose: 200.0 mg/kg/injection, schedule: Q01DX009 (ip), vehicle: saline): 94 % of control

COC(=O)C1=C(C)NC(C)=C(C(=O)OCCCN2CCC(c3ccccc3)(c3ccccc3)CC2)C1c1cccc([N+](=O)[O-])c1 (stereo not given)
T/C [1]: 100 % of control | T/C [2]: 103 % of control | T/C [3]: 99 % of control

COc1ccccc1NC(=O)Oc1ccc(C(C)(CCC(=O)O)c2ccc(OC(=O)Nc3ccccc3OC)cc2)cc1
T/C (dose: 25.0 mg/kg/injection, schedule: Q01DX005 (ip), vehicle: saline with Tween-80): 103 % of control | T/C [11]: 101 % of control and 104 % of control and 97 % of control | T/C [13]: 102 % of control and 105 % of control and 94 % of control | T/C [15]: 90 % of control and 97 % of control | T/C (dose: 400.0 mg/kg/injection, schedule: Q01DX005 (ip), vehicle: saline with Tween-80): 102 % of control

S=c1nc(N(c2ccccc2)c2ccccc2)[nH]s1
T/C [9]: 104 % of control | T/C [10]: 101 % of control | T/C [12]: 93 % of control

CCOc1ccccc1C=C1c2ccccc2C(=O)c2ccccc21
T/C [12]: 96 % of control | T/C [14]: 92 % of control | T/C [20]: 91 % of control

O=C(c1ccccc1)N(C(=O)c1ccccc1)c1ccccn1
T/C [9]: 103 % of control | T/C [10]: 106 % of control | T/C [12]: 112 % of control | T/C [14]: 87 % of control | T/C [20]: 86 % of control | T/C (dose: 400.0 mg/kg/injection, schedule: Q01DX009 (ip), vehicle: saline with Tween-80): 93 % of control

[Mn+2].[O-]c1ccccc1/C=N/c1ccccn1.[O-]c1ccccc1/C=N/c1ccccn1.[OH3+].[OH3+]
T/C (dose: 50.0 mg/kg/injection, schedule: Q04DX002 (ip), vehicle: saline with Tween-80): 97 % of control | T/C [7]: 96 % of control | T/C [8]: 94 % of control

CSc1nc(N)c(C(N)=O)s1
T/C [16]: 100 % of control | T/C [21]: 103 % of control | T/C [22]: 109 % of control
